Here are results for 3 molecules from patent US10532991B2 (TAIPEI MEDICAL UNIVERSITY, priority 2018, dated 2020).

Data set [1] is described as follows: Human liver microsome stability. Conditions: human liver microsomes, 1 μM test compound, 37° C.; CLint = k/P. The format is in vitro ADME. On the technique in general: Liver microsomes are vesicles of endoplasmic reticulum, rich in cytochrome P450 enzymes.
For data set [2] the following is noted: in vivo; cited from earlier work.

`C[C@]12CC[C@H]3[C@@H](CCC4=CC(=O)CC[C@@]43C)[C@@H]1CC[C@@H]2O` [Testosterone, testosterone, reference compound]: in data set [1], the “CLint (intrinsic clearance)” value is reported as 0.0727 mL/min/mg Protein.
In the case of `[2H]C([2H])([2H])Oc1cc2c(cc1OC([2H])([2H])[2H])C1CC(=O)C(CC(C)C)CN1CC2` (centres unmarked) [deutetrabenazine], in data set [2], the “area under the curve (AUC)” value is 542 ng·h/mg and the t1/2 was 8.6 h.
`COc1cc2c(cc1OC)C1CC(=O)C(CC(C)C)CN1CC2` (centres unmarked) [tetrabenazine]: in data set [2], the “area under the curve (AUC)” value is 261 ng·h/mg and the t1/2 is listed as 4.8 h.
